Values joined by “and” are separate entries in the source; they are usually repeats but may differ in a detail not shown here. Equal entries are not always repeated. Where two headings read alike, the source gives them in different places.
What was measured:
[1] = biological target: Ron(h) (Homo sapiens, UniProt Q04912); assay: Protein kinase inhibition assay; format: biochemical; settings: read-out: percent residual activity of Ron(h)
Method: (§1) Certain compounds were tested for activity in protein kinase inhibition assays. All substrates were dissolved and diluted to working stocks in de-ionized water, apart from histone H1 (10× working stock in 20 mM MOPS pH 7.0), PDKtide (10× working stock in 50 mM Tris pH 7.0) ATF2 (which is typically stored at a 20× working stock in 50 mM Tris pH 7.5, 150 mM NaCl, 0.1 mM EGTA, 0.03% Brij-35, 50% glycerol, 1 mM benzamidine, 0.2 mM PMSF and 0.1% R-mercaptoethanol), KKLNRTLSFAEPG (SEQ ID NO:203) and RRRLSFAEPG (SEQ ID NO:204) (50 mM HEPES pH 7.4) and GGEEEEYFELVKKKK (SEQ ID NO:205) (20 mM MOPS pH 7.0). All kinases were pre-diluted to a 10× working concentration prior to addition into the assay. The composition of the dilution buffer for each kinase is detailed below.
(§2) In a final reaction volume of 25 μl, Ron (h) (5-10 mU) is incubated with 8 mM MOPS pH 7.0, 0.2 mM EDTA, 250 μM KKSRGDYMTMQIG (SEQ ID NO:210), 10 mM MgAcetate and [gamma-33P-ATP] (specific activity approx. 500 cpm/pmol, concentration as required). The reaction is initiated by the addition of the MgATP mix. After incubation for 40 minutes at room temperature, the reaction is stopped by the addition of 5 μl of a 3% phosphoric acid solution. 10 μl of the reaction is then spotted onto a P30 filtermat and washed three times for 5 minutes in 75 mM phosphoric acid and once in methanol prior to drying and scintillation counting.

[2] = biological target: Abl(h) (Homo sapiens, UniProt P00519); assay: Protein kinase inhibition assay; format: biochemical; settings: for Mean (Counts - Blanks) / Activity (% Control) / Counts: 2.5 μM
Chain of Abl(h) (P00519 whole entry): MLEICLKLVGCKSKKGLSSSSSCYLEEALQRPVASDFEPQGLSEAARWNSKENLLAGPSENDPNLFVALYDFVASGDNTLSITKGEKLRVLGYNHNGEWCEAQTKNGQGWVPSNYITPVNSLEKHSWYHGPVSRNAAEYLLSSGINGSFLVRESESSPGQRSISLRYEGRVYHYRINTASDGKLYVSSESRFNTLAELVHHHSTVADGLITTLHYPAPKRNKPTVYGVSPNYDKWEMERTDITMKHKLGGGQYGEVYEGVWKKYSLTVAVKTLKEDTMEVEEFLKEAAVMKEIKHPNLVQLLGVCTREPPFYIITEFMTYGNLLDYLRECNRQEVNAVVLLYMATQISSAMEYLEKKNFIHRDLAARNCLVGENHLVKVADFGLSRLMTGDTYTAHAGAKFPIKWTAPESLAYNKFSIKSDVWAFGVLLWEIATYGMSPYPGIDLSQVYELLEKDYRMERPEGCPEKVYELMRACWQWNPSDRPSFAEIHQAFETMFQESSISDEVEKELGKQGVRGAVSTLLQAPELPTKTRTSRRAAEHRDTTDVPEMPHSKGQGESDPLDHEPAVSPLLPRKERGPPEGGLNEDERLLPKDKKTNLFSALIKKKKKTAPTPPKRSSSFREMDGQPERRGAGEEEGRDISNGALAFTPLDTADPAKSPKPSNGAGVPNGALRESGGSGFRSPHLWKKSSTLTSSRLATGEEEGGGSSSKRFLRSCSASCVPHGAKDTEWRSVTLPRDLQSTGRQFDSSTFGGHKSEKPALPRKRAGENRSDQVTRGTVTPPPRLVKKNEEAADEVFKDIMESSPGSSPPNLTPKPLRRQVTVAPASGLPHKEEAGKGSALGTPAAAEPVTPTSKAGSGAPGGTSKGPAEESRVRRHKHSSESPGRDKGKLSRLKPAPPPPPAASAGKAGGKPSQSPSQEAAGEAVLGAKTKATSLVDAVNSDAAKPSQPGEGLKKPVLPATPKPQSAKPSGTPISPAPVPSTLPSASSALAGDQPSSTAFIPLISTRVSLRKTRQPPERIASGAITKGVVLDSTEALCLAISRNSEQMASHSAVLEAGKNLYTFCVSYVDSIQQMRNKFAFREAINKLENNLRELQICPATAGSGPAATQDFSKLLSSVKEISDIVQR
Method: as §1
as §2, with “Abl” for “Ron”, “50” for “250”, “EAIYAAPFAKKK” for “KKSRGDYMTMQIG”, “NO:206),” for “NO:210),”

[3] = biological target: Rsk2(h) (Homo sapiens, UniProt P51812); assay: Protein kinase inhibition assay; format: biochemical; settings: read-out: percent residual activity of Rsk2(h)
Chain of Rsk2(h) (P51812 whole entry): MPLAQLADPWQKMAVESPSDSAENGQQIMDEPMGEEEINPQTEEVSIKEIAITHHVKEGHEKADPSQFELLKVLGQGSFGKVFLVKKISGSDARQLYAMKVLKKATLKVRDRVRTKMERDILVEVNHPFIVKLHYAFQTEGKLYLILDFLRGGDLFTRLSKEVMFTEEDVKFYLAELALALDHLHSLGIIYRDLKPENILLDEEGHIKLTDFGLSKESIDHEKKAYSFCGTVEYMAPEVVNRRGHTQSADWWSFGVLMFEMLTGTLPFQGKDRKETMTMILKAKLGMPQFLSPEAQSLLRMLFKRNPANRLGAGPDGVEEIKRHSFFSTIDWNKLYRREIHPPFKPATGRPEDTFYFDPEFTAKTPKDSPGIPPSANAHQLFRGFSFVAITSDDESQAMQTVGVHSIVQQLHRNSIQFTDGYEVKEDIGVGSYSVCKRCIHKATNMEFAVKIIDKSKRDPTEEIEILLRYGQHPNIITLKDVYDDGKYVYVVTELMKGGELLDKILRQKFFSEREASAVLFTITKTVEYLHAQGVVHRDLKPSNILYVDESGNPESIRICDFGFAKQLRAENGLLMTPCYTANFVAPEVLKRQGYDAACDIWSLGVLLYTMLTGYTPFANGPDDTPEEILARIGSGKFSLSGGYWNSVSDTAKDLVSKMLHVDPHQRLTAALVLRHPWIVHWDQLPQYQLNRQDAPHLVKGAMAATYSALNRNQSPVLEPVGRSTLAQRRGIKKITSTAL
Method: as §1
as §2, with “Rsk2” for “Ron”, “30” for “250”, “KKKNRTLSVA” for “KKSRGDYMTMQIG”, “NO:212),” for “NO:210),”

[4] = system: HCT116 cells; assay: DNA synthesis (BrdU-ELISA); format: cell-based; settings: for A-1 a concentration at which many of the cells were dead
Method: Effects of compound A-1 and compound B-1 on DNA synthesis, RNA synthesis and protein synthesis were determined in HCT116 cells. HCT116 cells were plated overnight at 100,000 cells per mL. Next day cells were treated with increasing amounts of either compound A-1 or compound B-1 followed by one hour incubation with BrdU label (from a BrdU Cell proliferation Assay Kit, Calbiochem) to monitor DNA synthesis; […] of ^3H-uridine to monitor total RNA synthesis; […] of ^3H-methionine to monitor protein synthesis or plain media to monitor RNA Polymerase II-dependent RNA synthesis. DNA synthesis was assessed using a BrdU-ELISA (BrdU Cell proliferation Assay Kit, Calbiochem). To measure total RNA synthesis, total RNA from treated cells was isolated with a RNease kit (QIAGEN), levels of total RNA were assessed with Ribogreen reagent (Invitrogen) and the newly synthesized tritiated RNA was measured in a scintillation Counter (Perkin Elmer). To measure effects on protein synthesis, cells were lysed in a RIPA buffer, and total protein was precipitated with 10% TCA on a glass-filters. Newly synthesized tritiated protein was measured in a scintillation Counter (Perkin Elmer). Effects of drugs on […] RNA synthesis were assessed by monitoring levels of a c-myc mRNA, which has a relatively short half-life of approximately 30 minutes, by Taqman qRT-PCR (ABI).

[5] = biological target: MSK1(h) (Homo sapiens, UniProt O75582); assay: Protein kinase inhibition assay; format: biochemical; settings: read-out: percent residual activity of MSK1(h)
Chain of MSK1(h) (O75582 whole entry): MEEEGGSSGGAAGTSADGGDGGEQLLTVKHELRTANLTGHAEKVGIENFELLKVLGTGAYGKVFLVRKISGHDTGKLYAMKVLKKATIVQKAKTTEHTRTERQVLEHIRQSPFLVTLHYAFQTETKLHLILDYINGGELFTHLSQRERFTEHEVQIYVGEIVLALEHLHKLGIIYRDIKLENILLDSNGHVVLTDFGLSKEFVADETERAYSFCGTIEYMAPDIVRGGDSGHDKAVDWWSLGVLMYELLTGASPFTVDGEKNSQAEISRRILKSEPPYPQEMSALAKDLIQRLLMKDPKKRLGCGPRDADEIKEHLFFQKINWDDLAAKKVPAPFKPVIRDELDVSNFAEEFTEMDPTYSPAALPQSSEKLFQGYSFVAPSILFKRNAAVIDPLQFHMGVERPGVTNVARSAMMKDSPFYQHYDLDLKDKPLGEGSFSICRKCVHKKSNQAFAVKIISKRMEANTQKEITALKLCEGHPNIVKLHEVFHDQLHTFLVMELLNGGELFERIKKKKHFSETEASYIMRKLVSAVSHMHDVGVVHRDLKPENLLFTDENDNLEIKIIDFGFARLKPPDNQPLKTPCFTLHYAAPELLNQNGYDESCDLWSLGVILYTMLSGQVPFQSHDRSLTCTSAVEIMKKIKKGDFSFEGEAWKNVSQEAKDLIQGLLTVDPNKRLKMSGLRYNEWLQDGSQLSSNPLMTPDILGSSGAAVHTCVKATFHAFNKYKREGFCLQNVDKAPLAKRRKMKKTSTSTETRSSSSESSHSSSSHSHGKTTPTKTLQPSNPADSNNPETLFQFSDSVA
Method: as §1
as §2, with “MSK1” for “Ron”, “30” for “250”, “GRPRTSSFAEGKK” for “KKSRGDYMTMQIG”, “NO:220),” for “NO:210),”

[6] = biological target: ROCK-II(h) (Homo sapiens, UniProt O75116); assay: Protein kinase inhibition assay; format: biochemical; settings: read-out: percent residual activity of ROCK-II(h)
Chain of ROCK-II(h) (O75116 whole entry): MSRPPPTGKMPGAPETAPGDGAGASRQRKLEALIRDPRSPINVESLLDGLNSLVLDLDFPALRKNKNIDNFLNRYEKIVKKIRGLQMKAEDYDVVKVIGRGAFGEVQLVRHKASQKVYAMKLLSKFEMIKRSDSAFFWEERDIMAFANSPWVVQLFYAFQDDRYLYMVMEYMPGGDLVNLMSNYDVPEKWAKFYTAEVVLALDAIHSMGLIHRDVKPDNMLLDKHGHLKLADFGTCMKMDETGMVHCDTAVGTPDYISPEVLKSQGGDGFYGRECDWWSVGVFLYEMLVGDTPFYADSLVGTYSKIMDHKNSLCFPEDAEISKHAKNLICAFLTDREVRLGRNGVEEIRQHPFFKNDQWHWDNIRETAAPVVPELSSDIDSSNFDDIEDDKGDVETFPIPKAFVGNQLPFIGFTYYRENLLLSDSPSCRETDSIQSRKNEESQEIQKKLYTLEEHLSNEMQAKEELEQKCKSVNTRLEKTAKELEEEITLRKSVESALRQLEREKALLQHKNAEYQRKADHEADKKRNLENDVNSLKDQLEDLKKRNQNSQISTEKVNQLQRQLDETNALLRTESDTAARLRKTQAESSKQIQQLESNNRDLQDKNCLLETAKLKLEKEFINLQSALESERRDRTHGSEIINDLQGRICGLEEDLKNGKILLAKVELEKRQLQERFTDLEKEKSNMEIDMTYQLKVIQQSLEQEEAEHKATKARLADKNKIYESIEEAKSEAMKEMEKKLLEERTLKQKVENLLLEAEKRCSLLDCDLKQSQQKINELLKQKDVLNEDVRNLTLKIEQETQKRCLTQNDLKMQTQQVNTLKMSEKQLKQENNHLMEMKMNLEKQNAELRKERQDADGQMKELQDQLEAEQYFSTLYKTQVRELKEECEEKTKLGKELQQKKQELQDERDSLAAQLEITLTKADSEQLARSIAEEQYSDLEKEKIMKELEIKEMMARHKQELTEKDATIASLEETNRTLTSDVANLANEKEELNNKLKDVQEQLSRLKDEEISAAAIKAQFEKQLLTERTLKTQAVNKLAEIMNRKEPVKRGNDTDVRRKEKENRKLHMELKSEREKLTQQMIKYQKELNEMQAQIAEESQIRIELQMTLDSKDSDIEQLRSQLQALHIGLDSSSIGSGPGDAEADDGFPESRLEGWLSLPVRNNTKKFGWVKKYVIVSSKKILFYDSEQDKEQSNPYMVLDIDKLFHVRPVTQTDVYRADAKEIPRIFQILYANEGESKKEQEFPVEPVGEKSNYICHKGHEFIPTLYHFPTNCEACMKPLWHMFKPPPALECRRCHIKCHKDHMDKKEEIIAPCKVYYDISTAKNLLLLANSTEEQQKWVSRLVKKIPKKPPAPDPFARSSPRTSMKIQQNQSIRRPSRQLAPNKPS
Method: as §1
In a final reaction volume of 25 μl, ROCK-II (h) (5-10 mU) is incubated with 50 mM Tris pH 7.5, […] EGTA, 30 μM […] (SEQ ID NO:222), 10 mM MgAcetate and [y-33P-ATP] (specific activity approx. 500 cpm/pmol, concentration as required). The reaction is initiated by the addition of the MgATP mix. After incubation for 40 minutes at room temperature, the reaction is stopped by the addition of 5 μl of a 3% phosphoric acid solution. 10 μl of the reaction is then spotted onto a P30 filtermat and washed three times for 5 minutes in 75 mM phosphoric acid and once in methanol prior to drying and scintillation counting.

[7] = 45 micromolar ATP, single replicates
[8] = 45 micromolar ATP, n = 2, read-out: Mean Activity (% Control)
[9] = 45 micromolar ATP, single replicates, read-out: Activity (% Control)
[10] = read-out: percent residual activity of Abl(h)

Row | SMILES | remaining activity at 2.5 µM [1] | Mean (Counts - Blanks) ([2]; 45 micromolar ATP) | Activity (% Control) [2, 7] | Counts [2, 7] | remaining activity at 2.5 µM [2, 8] | remaining activity at 2.5 µM [2, 9] | remaining activity at 2.5 µM [2, 10] | remaining activity at 2.5 µM [3] | concentration that significantly reduced DNA synthesis [4] | remaining activity at 2.5 µM [5] | remaining activity at 2.5 µM [6]
1 | CN1CCCC1CCNC(=O)c1cn2c3c(c(N4CCC(c5cnccn5)C4)c(F)cc3c1=O)Oc1cc3ccccc3cc1-2 (stereo not shown) [Compound A-1] | 71% | 12522 | 25 % Control | 15236 and 14630 | 26% | 27% | 26% | 60% | 10 µM | 61% | 64%
2 | CC(=O)N1CCN(c2ccc3c(=O)c(C(=O)NCCN4CCCC4)c4n(C)c5ccccc5n4c3n2)CC1 [Compound B-1] | 95% | 47944 | 98 % Control | 51051 and 49659 | 100% | 101% | 100% | 106% | 30 µM | 99% | 115%
